{"source": "patent US20180344726A1", "about": "“ABUSE RESISTANT TRANSDERMAL DELIVERY DEVICES AND COMPOSITIONS COMPRISING AN OPIOID AGONIST AND A NON-TRANSDERMALLY DELIVERED N-OXIDE DERIVATIVE OF AN OPIOID ANTAGONIST FOR THE TREATMENT OF PAIN” (priority 2015, published 2018)", "key": {"[1]": {"assay": "Concentration of saturated antagonist solutions in phosphate buffer pH 5.0", "assay_type": "physicochemical", "conditions": "phosphate buffer pH 5.0, stirred overnight, filtered", "protocol": "The determination of in vitro skin permeation was performed with saturated solutions of the respective antagonist species. Therefore an excess of the antagonist was weighed in phosphate buffer of pH 5.0 and stirred overnight. pH was monitored and, if necessary, adjusted. The cells were incubated at 32° C. Solutions were filtrated through a syringe filter (1 μm PTFE) prior to application into the diffusion cells. Concentrations of the solutions were determined.\nThe determination of naloxone and naloxone N-oxide in the acceptor medium of the in vitro skin permeations samples (receptor phase) was done by HPLC with UV-detection."}, "[2]": {"assay": "Log P by potentiometric (pH-metric) octanol/water titration", "assay_type": "physicochemical", "conditions": "Neutral species, […] C., […] KCl", "protocol": "(§1) pKa analysis was performed using a pH-metric method. […] No precipitation or degradation was observed and two pKas were determined from the potentiometric data. Log P was determined using the potentiometric (pH-metric method). The sample was titrated in various ratios of octanol/water in two titrations covering the pH range 2.0-12.0 at concentrations of 1.9-1.1 mM. The shift of the aqueous pKas in the presence of octanol was used to determine the log P of the neutral species."}, "[3]": {"assay": "pKa analysis by pH-metric triple titration", "assay_type": "physicochemical", "conditions": "[…] C., […] KCl", "protocol": "as §1"}, "[4]": {"assay": "Intrinsic in vitro skin permeation of saturated antagonist solutions (Franz cell)", "assay_type": "in vitro ADME", "conditions": "saturated donor solution pH 5.0, human skin", "procedure": "Diffusion cells (made of glass) with a vertical application and a volume of 5 ml were used. The human skin used for the analysis came from an aesthetic operation. Belly skin from female donors was supplied from plastic surgery. After arrival, skin was visually checked whether it was without any scars and stretch marks. A layer of 200-400 μm was cut with a dermatome. The permeation area of 0.82 cm^2 was punched out of the skin.\nThe diffusion cell consists of a donor chamber and a receptor compartment, the skin is fixed between both. The sampling and volume replacement were executed via an autosampler."}, "[5]": {"assay": "In vitro skin permeation from prototype transdermal patches (Franz cell)", "assay_type": "in vitro ADME, human", "conditions": "patches with naloxone N-oxide:opioid agonist 1:1, 3:1 or 5:1 by weight", "protocol": "(§2) Naloxone N-oxide was incorporated into a prototype transdermal patch along with an opioid agonist. […] Batches of patches were prepared by weighing the appropriate amounts of the opioid agonist, Naloxone N-oxide and dry patch matrix of poly(meth)acrylate and dissolving in ethylacetate. The matrix solvent system was added and stirred for 30 minutes on a magnetic stirrer to yield a homogenous mixture. After mixing, the drug/polymer mixture was hand cast onto a release liner, Loparex Prime Liner FL 2000. Casting was carried out with a casting knife of variable width to achieve a target dry area weight matrix of 55 g/m^2. The cast was then dried at room temperature for 10 minutes, transferred to a convection oven and dried at 70° C. for 15 minutes and at 100° C. for 5 minutes. Finally the dried casts were hand-laminated with an occlusive backing, Scotchpak 9738, and patches were cut out of the laminate with 0.82 cm^2 cutting dies for skin permeation and 5 cm^2 for stability experiments.\nThe in vitro skin permeation of opioid agonist from each of the patches was tested using a Franz cell as described above."}, "[6]": {"assay": "Stability of prototype patches over 6 days at 60° C.", "assay_type": "physicochemical", "protocol": "as §2\nThe stability of each of the patches over 6 days at 60° C. was also tested."}}, "data": [{"smiles": "C=CC[N+]1([O-])CC[C@]23c4c5ccc(O)c4O[C@H]2C(=O)CC[C@@]3(O)[C@H]1C5", "note": "(stereo partly shown) [Naloxone N-oxide]", "values": [{"measurement": "Concentration saturated solution c", "setting": "[1]", "result": 3960, "unit": "µg/mL"}, {"measurement": "logP", "setting": "[2]", "result": "−0.42"}, {"measurement": "pKa", "setting": "[3]; Type Acid", "result": "8.55 ± 0.01"}, {"measurement": "pKa", "setting": "[3]; Type Base", "result": "2.96 ± 0.01"}, {"measurement": "Permeation through the skin (in words)", "setting": "[4]", "result": "Naloxone N-oxide did not permeate through the skin."}, {"measurement": "N-oxide permeated through the skin from patch", "setting": "[5]", "result": "no detectable levels"}, {"measurement": "Impact on the stability of the patch", "setting": "[6]", "result": "does not impact on the stability of the patch"}]}]}
